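Briefly, cells in 96-well plates were exposed to five compound concentrations for 48 h, and endpoints were estimated by linear interpolation. GI50 = concentration required for 50% inhibition of growth.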 Calls of active or inactive are those of the source. Rule as the data show it: active = GI50 up to about 1.1 µM and inactive = higher.
Columns and labels:
Test in all cases: NCI-60 cell line screen, 48 h
HOP-18 = tested on: HOP-18
DMS-273 = tested on: DMS-273
DMS-114 = tested on: DMS-114
SNB-78 = tested on: SNB-78
RXF 631 = tested on: RXF 631
DLD-1 = tested on: DLD-1
KM-20L2 = tested on: KM-20L2
XF498 = tested on: XF498

Measured: GI50

O=c1c2cccc3cccc(c4oc5c6cccc7cccc(c(=O)c5c14)c76)c32
inactive: HOP-18 14.6 µM | DMS-273 12.8 µM | DMS-114 12.5 µM | SNB-78 13.7 µM | RXF 631 11.4 µM | DLD-1 15.1 µM | KM-20L2 15.4 µM

Cc1ccc(-c2cc(=O)c3cc(C)c(C)c(C(=O)O)c3o2)cc1N
inactive: HOP-18 > 100 µM | XF498 > 100 µM | DMS-114 > 100 µM | SNB-78 > 100 µM | RXF 631 > 100 µM | DLD-1 > 100 µM | KM-20L2 > 100 µM

CCCCCCCCC(O)C#CC(N)=O (stereo unspecified)
inactive: HOP-18 12.6 µM | DMS-273 7.28 µM | XF498 17.1 µM | DMS-114 3.34 µM | SNB-78 15.6 µM | RXF 631 11.7 µM | DLD-1 10.2 µM | KM-20L2 15.6 µM

CC(=O)SC(SC(C)=O)SC(C)=O
inactive: HOP-18 > 100 µM | DMS-273 > 100 µM | DMS-114 31.1 µM | SNB-78 > 100 µM | RXF 631 > 100 µM | DLD-1 > 100 µM | KM-20L2 > 100 µM

COc1ccc(C2=Nc3ccccc3N=C(SC)C2)cc1
inactive: HOP-18 > 100 µM | DMS-273 73.6 µM | XF498 37.8 µM | DMS-114 44.1 µM | SNB-78 > 100 µM | RXF 631 47 µM | DLD-1 42.8 µM | KM-20L2 41.3 µM

CC12OC3(O)C4C5CC(C6C5C3C61)C42 (stereo unspecified)
inactive: HOP-18 > 100 µM | DMS-273 > 100 µM | DMS-114 > 100 µM | SNB-78 > 100 µM | RXF 631 > 100 µM | DLD-1 > 100 µM | KM-20L2 > 100 µM

C/C(CC(=O)Nc1ccc([N+](=O)[O-])cc1)=N\Nc1ccc([N+](=O)[O-])cc1[N+](=O)[O-]
inactive: DMS-273 18.5 µM | XF498 86.7 µM | DMS-114 48.5 µM | SNB-78 > 100 µM | RXF 631 > 100 µM | DLD-1 39.4 µM | KM-20L2 32.8 µM

O=c1[nH]c(=O)n(C2OC(CO)C(O)C2O)cc1OCc1ccccc1 (stereo unspecified)
inactive: HOP-18 > 100 µM | DMS-273 > 75.9 µM | XF498 > 100 µM | DMS-114 > 57.9 µM | SNB-78 > 100 µM | RXF 631 > 100 µM | DLD-1 > 59.8 µM | KM-20L2 > 81.7 µM

O=C(NCCO)c1ccc([N+](=O)[O-])cc1
inactive: DMS-273 > 100 µM | XF498 > 100 µM | DMS-114 > 100 µM | SNB-78 > 100 µM | RXF 631 > 100 µM | DLD-1 > 100 µM | KM-20L2 > 100 µM

COc1cc2c(cc1OC)CC(=O)Nc1cc(OC)c(OC)cc1CC2
inactive: HOP-18 > 100 µM | DMS-273 24.8 µM | XF498 > 100 µM | DMS-114 24.3 µM | SNB-78 > 95.5 µM | RXF 631 > 75.9 µM | DLD-1 40.3 µM | KM-20L2 48.4 µM

Cc1c(Cl)cccc1NC(=O)C(=O)C1C(=O)CC(C)(C)CC1=O
inactive: HOP-18 > 100 µM | DMS-273 > 100 µM | DMS-114 > 100 µM | SNB-78 > 100 µM | RXF 631 > 100 µM | DLD-1 > 100 µM | KM-20L2 > 100 µM
